The values below come from US20260284165A1, “COMPOSITIONS AND METHODS FOR TREATMENT OR P[…] OF CANCER INCLUDING TRIPLE NEGATIVE BREAST CANCER AND/OR LUNG CANCER” (The Medical College of Wisconsin, Inc., priority 2023, published 2026).

In the assay the test system is splenocytes. Nature of the assay: IFNγ ELISPOT in splenocytes, cyclin E2 and KIF15 epitopes. Format: cell-based, mice. The note with it: after four immunizations. The text has this:
We developed both cyclin E2 and KIF15 MHC-II vaccines using the multi-scoring system to identify immunogenic epitopes (Table 4). […] This multi-antigen preventive vaccine should also help overcome antigen-negative variant escape that has been observed with single antigen vaccines. Currently, a mRNA vaccine is also in development that contains the epitopes of TOP2A, cyclin E2 or KIF15 and will test its efficacy and immune response in relevant preclinical animal models.
Regarding AAALCHFTSIEVVKK [p298], the “type I immunity (IFNγ ELISPOT)” value is “elicited type I immunity”.

As for SHNLRGVIPRSFEYL [p129], the “type I immunity (IFNγ ELISPOT)” value is on record as “elicited type I immunity”.

For the sequence VVKSTSPVKLKTFKK [p334], the “type I immunity (IFNγ ELISPOT)” value is listed as “elicited type I immunity”.
